In general, IC50 refers to the concentration that inhibits the measured activity by half.

SMILES strings stand for the structures. Where a SMILES comes first, the peptide text is derived from it. [ ]: non-standard residue; d: D form. Oic = O=C(O)[C@@H]1C[C@@H]2CCCC[C@@H]2N1; Gly(octyl) = CCCCCCCC[C@H](N)C(=O)O; N(CH2CH2COOH)Gly = O=C(O)CCNCC(=O)O; β3hK = NCCCC[C@H](N)CC(=O)O; Aze = O=C(O)[C@@H]1CCN1; Dap = NC[C@H](N)C(=O)O; Nlys = NCCCCNCC(=O)O

Assay type in all cases: biochemical
For experiment [1], the target named is T1, human proteinase 3 (Homo sapiens, UniProt P24158).
T1 construct: purchased Elastin Products Company, USA
T1 sequence (P24158 28-248): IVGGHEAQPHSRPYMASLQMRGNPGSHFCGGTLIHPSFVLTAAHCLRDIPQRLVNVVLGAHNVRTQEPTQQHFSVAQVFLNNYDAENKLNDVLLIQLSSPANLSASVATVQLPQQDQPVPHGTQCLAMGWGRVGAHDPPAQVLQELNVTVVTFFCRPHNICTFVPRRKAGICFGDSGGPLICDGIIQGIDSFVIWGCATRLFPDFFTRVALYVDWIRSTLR
The experiment is described as follows: Inhibition of human proteinase 3 (substrate Boc-Ala-Ala-Nva-SBzl). As to conditions: for hNE/hPr3 selectivity: ratio of hPr3 IC50 to hNE IC50; for IC50: substrate Boc-Ala-Ala-Nva-SBzl 1 mM, enzyme 10 nM, 37° C., pH7.4, read-out: Human proteinase 3 (hPr3) IC50. Here is the method:
2.4 Inhibition of Human Proteinase 3
The inactivation of human proteinase 3 (Elastin Products Company, USA) by the peptides of the invention using synthetic tripeptidic substrate Boc-Ala-Ala-Nva-SBzl (Elastin Products Company, USA) was determined as follows:
The above substrate (1 mM), 4,4′-dithiodipyridine (250 μM) and human proteinase 3 (10 nM) were incubated at 37° C. with serial dilutions of the peptides (0.5% DMSO final) in assay buffer (50 mM Tris, pH7.4, 150 mM NaCl, 0.01% Tween20). The reaction process was followed by monitoring the change in absorbance at 340 nm for 30 minutes. Control assays with the same assay set-up as above, but without peptide, ran linearly. The dose-response data were fitted to the 4-parameter Hill equation providing the IC50 value using Graphpad (Prism 5).

Experiment [2] deals with T2, porcine pancreatic elastase (Sus scrofa, UniProt P00772).
T2 construct: purchased Sigma, USA
T2 sequence (P00772 27-266): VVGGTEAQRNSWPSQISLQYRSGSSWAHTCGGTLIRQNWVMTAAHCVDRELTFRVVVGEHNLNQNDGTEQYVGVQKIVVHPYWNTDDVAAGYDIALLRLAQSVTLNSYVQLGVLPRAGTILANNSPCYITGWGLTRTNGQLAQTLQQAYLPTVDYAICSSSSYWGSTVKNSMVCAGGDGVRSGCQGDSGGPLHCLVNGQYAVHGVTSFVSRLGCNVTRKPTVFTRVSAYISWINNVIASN
The experiment is described as follows: Inhibition of porcine pancreatic elastase (hydrolysis of MeOSuc-AAA-pNA). As to conditions: for hNE/PPE selectivity: ratio of PPE IC50 to hNE IC50; for IC50: substrate MeOSuc-AAA-pNA 1 mM, enzyme 15 nM, 37° C., pH8, read-out: Porcine pancreatic elastase (PPE) IC50. The method, then: 2.3 Inhibition of Porcine Pancreatic Elastase
The ability of the peptides of the invention to inhibit the hydrolysis activity of porcine pancreatic elastase (Sigma, USA) using the synthetic tripeptidic substrate MeOSuc-AAA-pNA (Bachem, Switzerland) was determined as follows:
The above substrate (1 mM) and […] porcine pancreatic elastase (15 nM) were incubated at 37° C. with serial dilutions of the peptides (0.5% DMSO final) in assay buffer (50 mM Tris, pH8, 100 mM NaCl, 0.01% Tween20). The release of pNA was followed by monitoring the change in absorbance at 405 nm for 30 minutes. Control assays with the same assay set-up as above, but without peptide, ran linearly. The dose-response data were fitted to the 4-parameter Hill equation providing the IC50 value using Graphpad (Prism 5).

The target in experiment [3] is T3, human neutrophil elastase (Homo sapiens, UniProt P08246).
T3 construct: purchased Serva Electrophoresis, Germany
T3 sequence (P08246 30-267): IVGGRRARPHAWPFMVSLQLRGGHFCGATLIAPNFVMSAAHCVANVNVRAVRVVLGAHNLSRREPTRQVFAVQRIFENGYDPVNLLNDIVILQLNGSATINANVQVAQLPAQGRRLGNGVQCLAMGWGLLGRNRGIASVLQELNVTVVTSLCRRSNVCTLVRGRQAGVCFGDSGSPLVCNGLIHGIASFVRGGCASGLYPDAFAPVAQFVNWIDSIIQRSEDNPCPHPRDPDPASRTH
The experiment is described as follows: Inhibition of human neutrophil elastase (hydrolysis of MeOSuc-AAPV-pNA). As to conditions: substrate MeOSuc-AAPV-pNA 0.3 mM, enzyme 10 nM, 37° C., pH 8; read-out: Human neutrophil elastase (hNE) IC50. The method, then:
2.2 Inhibition of Human Neutrophil Elastase
The ability of the peptides of the invention to inhibit the hydrolysis activity of human neutrophil elastase (Serva Electrophoresis, Germany) using the synthetic tetrapeptidic substrate MeOSuc-AAPV-pNA (Bachem, Switzerland) was determined as follows:
The above substrate (0.3 mM) and human neutrophil elastase (10 nM) were incubated at 37° C. with serial dilutions of the peptides (1% DMSO final) in assay buffer (50 mM Tris, pH 8, 300 mM NaCl, 0.01% Tween20). The release of pNA was followed by monitoring the change in absorbance at 405 nm for 30 minutes. Control assays with the same assay set-up as above, but without peptide, ran linearly. The dose-response data were fitted to the 4-parameter Hill equation providing the IC50 value using Graphpad (Prism 5).

Take `CCCCCCCC[C@@H]1NC(=O)[C@@H]2CCCN2C(=O)[C@H]2CCCN2C(=O)[C@H]([C@@H](C)O)NC(=O)[C@H](CCCCN)NC(=O)[C@H](CCC(N)=O)NC(=O)CN(CCCCN)C(=O)[C@@H]2CCCN2C(=O)[C@H]([C@@H](C)CC)NC(=O)[C@H](CO)NC(=O)[C@H](C)NC(=O)[C@H]([C@@H](C)O)NC(=O)[C@H](CCC(=O)O)NC1=O` [Example 35, Cyclo(-OctGly-Glu-Thr-Ala-Ser-Ile-Pro-Nlys-Gln-Lys-Thr-^DPro-Pro-)] (cyclo([Gly(octyl)]ETASIP[Nlys]QKT[dP]P)): in experiment [1], the hNE/hPr3 selectivity came out at 195 and the IC50 is 1.5 µM. Also, in experiment [2], the hNE/PPE selectivity worked out at 208 and the IC50 was found to be 1.6 µM. In experiment [3], the IC50 is 0.0077 µM.

Regarding `CCCCCCCC[C@@H]1NC(=O)[C@@H]2CCCN2C(=O)[C@H]2CCCN2C(=O)[C@H]([C@@H](C)O)NC(=O)[C@H](CCCCN)NC(=O)[C@H](CCC(N)=O)NC(=O)[C@@H]2C[C@@H]3CCCC[C@@H]3N2C(=O)[C@@H]2CCCN2C(=O)[C@H]([C@@H](C)CC)NC(=O)[C@H](CO)NC(=O)[C@H](C)NC(=O)[C@H]([C@@H](C)O)NC(=O)[C@H](CCC(=O)O)NC1=O` [Example 10, Cyclo(-OctGly-Glu-Thr-Ala-Ser-Ile-Pro-Oic-GI n-Lys-Thr-^DPro-Pro-)] (cyclo([Gly(octyl)]ETASIP[Oic]QKT[dP]P)), the hNE/hPr3 selectivity in experiment [1] is on record as above 13699. Besides, the IC50 in experiment [1] is above 100 µM; in experiment [2], 36.2 µM; in experiment [3], 0.0073 µM. For the same molecule, the hNE/PPE selectivity in experiment [2] was determined as 4959.

In the case of `CC[C@H](C)[C@@H]1NC(=O)[C@H](CO)NC(=O)[C@H](C)NC(=O)[C@H]([C@@H](C)O)NC(=O)[C@H](CCC(=O)O)NC(=O)[C@H](CCC(=O)N[C@@H](Cc2ccccc2)C(=O)O)NC(=O)[C@@H]2CCCN2C(=O)[C@H]2CCCN2C(=O)[C@H](Cc2ccc(O)cc2)NC(=O)[C@H](CCCCN)NC(=O)[C@H](CCC(N)=O)NC(=O)[C@@H]2CCCN2C(=O)[C@@H]2CCCN2C1=O` [Example 18, Cyclo(-Glu(Phe)-Glu-Thr-Ala-Ser-Ile-Pro-Pro-Gln-Lys-Tyr-^DPro-Pro-)] (cyclo(E(Phe)ETASIPPQKY[dP]P)), in experiment [1], the hNE/hPr3 selectivity is 2906 and the half-inhibitory concentration (IC50) is 46.2 µM. In addition, in experiment [2], the hNE/PPE selectivity was 4660 and the IC50 was found to be 74.1 µM. Besides, the IC50 in experiment [3] amounted to 0.0159 µM.

Consider `CCCCCCCC[C@@H]1NC(=O)[C@@H]2CCCN2C(=O)[C@H]2CCCN2C(=O)[C@H]([C@@H](C)O)NC(=O)C[C@H](CCCCN)NC(=O)[C@H](CCC(N)=O)NC(=O)[C@@H]2CCCN2C(=O)[C@@H]2CCCN2C(=O)[C@H]([C@@H](C)CC)NC(=O)[C@H](CO)NC(=O)[C@H](C)NC(=O)[C@H]([C@@H](C)O)NC(=O)[C@H](CCC(=O)O)NC1=O` [Example 37, Cyclo(-OctGly-Glu-Thr-Ala-Ser-Ile-Pro-Pro-Gln-[H-β^3-H Lys-OH]-Thr-^DPro-Pro-)] (cyclo([Gly(octyl)]ETASIPPQ[β3hK]T[dP]P)), for which, in experiment [1], the hNE/hPr3 selectivity worked out at 371 and the IC50 came to 15.4 µM. In experiment [2], the hNE/PPE selectivity amounted to 212 and the IC50 worked out at 8.8 µM. The IC50 in experiment [3] amounted to 0.0415 µM.

As to `CCCCCCCC[C@@H]1NC(=O)[C@@H]2CCCN2C(=O)[C@H]2CCCN2C(=O)[C@H]([C@@H](C)O)NC(=O)[C@H](CCCCN)NC(=O)[C@H](CCC(N)=O)NC(=O)[C@@H]2CCN2C(=O)[C@@H]2CCCN2C(=O)[C@H]([C@@H](C)CC)NC(=O)[C@H](CO)NC(=O)[C@H](C)NC(=O)[C@H]([C@@H](C)O)NC(=O)[C@H](CCC(=O)O)NC1=O` [Example 46, Cyclo(-OctGly-Glu-Thr-Ala-Ser-Ile-Pro-Azt-Gln-Lys-Thr-^DPro-Pro-)] (cyclo([Gly(octyl)]ETASIP[Aze]QKT[dP]P)), in experiment [1], the hNE/hPr3 selectivity is on record as 310. In addition, the values for the IC50 in experiment [1], in experiment [2] and in experiment [3] were 2.2 µM, 1.9 µM and 0.0071 µM, respectively. For the same molecule, the hNE/PPE selectivity in experiment [2] stood at 268.

For `CCCCCCCC[C@@H]1NC(=O)[C@H](Cc2ccc(O)cc2)NC(=O)[C@@H](CCCCN)NC(=O)[C@H]([C@@H](C)O)NC(=O)[C@H](CCCCN)NC(=O)[C@H](CCC(N)=O)NC(=O)[C@@H]2CCCN2C(=O)[C@@H]2CCCN2C(=O)[C@H]([C@@H](C)CC)NC(=O)[C@H](CO)NC(=O)[C@H](C)NC(=O)[C@H]([C@@H](C)O)NC(=O)[C@H](CCC(=O)O)NC1=O` [Example 27, Cyclo(-OctGly-Glu-Thr-Ala-Ser-Ile-Pro-Pro-GI n-Lys-Thr-^DLys-Tyr-)] (cyclo([Gly(octyl)]ETASIPPQKT[dK]Y)), in experiment [1], the hNE/hPr3 selectivity is on record as 3921 and the IC50 worked out at 39.6 µM. In addition, in experiment [2], the hNE/PPE selectivity is given as 4366 and the IC50 is 44.1 µM. The IC50 in experiment [3] was found to be 0.0101 µM.

For `CCCCCCCC[C@@H]1NC(=O)[C@@H]2CCCN2C(=O)[C@H]2CCCN2C(=O)[C@H]([C@@H](C)O)NC(=O)[C@H](CCCCN)NC(=O)[C@H](CCC(N)=O)NC(=O)CN(CCC(=O)O)C(=O)[C@@H]2CCCN2C(=O)[C@H]([C@@H](C)CC)NC(=O)[C@H](CO)NC(=O)[C@H](C)NC(=O)[C@H]([C@@H](C)O)NC(=O)[C@H](CCC(=O)O)NC1=O` [Example 34, Cyclo(-OctGly-Glu-Thr-Ala-Ser-Ile-Pro-Nglu-Gln-Lys-Thr-^DPro-Pro-)] (cyclo([Gly(octyl)]ETASIP[N(CH2CH2COOH)Gly]QKT[dP]P)), the hNE/hPr3 selectivity in experiment [1] stood at 172. Further, the IC50 in experiment [1] amounted to 5.2 µM; in experiment [2], 15.5 µM; in experiment [3] it was 0.0303 µM. Moreover, in experiment [2], the hNE/PPE selectivity is on record as 512.

Consider `CCCCCCCC[C@@H]1NC(=O)[C@H](Cc2ccc(O)cc2)NC(=O)[C@@H](C(C)C)NC(=O)[C@H]([C@@H](C)O)NC(=O)[C@H](CCCCN)NC(=O)[C@H](CCC(N)=O)NC(=O)[C@@H]2CCCN2C(=O)[C@@H]2CCCN2C(=O)[C@H]([C@@H](C)CC)NC(=O)[C@H](CO)NC(=O)[C@H](C)NC(=O)[C@H]([C@@H](C)O)NC(=O)[C@H](CCC(=O)O)NC1=O` [Example 21, Cyclo(-OctGly-Glu-Thr-Ala-Ser-Ile-Pro-Pro-GI n-Lys-Thr-^DVal-Tyr-)] (cyclo([Gly(octyl)]ETASIPPQKT[dV]Y)), for which, in experiment [1], the hNE/hPr3 selectivity came out at 1008. For the same molecule, the results for the IC50 in experiment [1], in experiment [2] and in experiment [3] were 13 µM, 10.6 µM and 0.0129 µM, respectively. Further, in experiment [2], the hNE/PPE selectivity is recorded as 822.

In the case of `CCCCCCCC[C@@H]1NC(=O)[C@@H]2CCCN2C(=O)[C@H]2CCCN2C(=O)[C@H](Cc2ccc(O)cc2)NC(=O)[C@H](CCCCN)NC(=O)[C@H](CCC(N)=O)NC(=O)[C@@H]2CCCN2C(=O)[C@@H]2CCCN2C(=O)[C@H]([C@@H](C)CC)NC(=O)[C@H](CO)NC(=O)[C@H](C)NC(=O)[C@H]([C@@H](C)O)NC(=O)[C@H](CNC(=O)[C@@H](N)Cc2ccccc2)NC1=O` [Example 14, Cyclo(-OctGly-Dap(Phe)-Thr-Ala-Ser-Ile-Pro-Pro-Gln-Lys-Tyr-^DPro-Pro-)] (cyclo([Gly(octyl)][Dap](Phe)TASIPPQKY[dP]P)), the hNE/hPr3 selectivity in experiment [1] was found to be 1733. For the same molecule, the values for the IC50 in experiment [1], in experiment [2] and in experiment [3] were 26 µM, 5.5 µM and 0.015 µM, respectively. For the same molecule, the hNE/PPE selectivity in experiment [2] is given as 367.

For the origin of these results see US10273267B2, “Beta-hairpin peptidomimetics as selective elastase inhibitors” (POLYPHOR AG, priority 2013, dated 2019).
